Measured values published in patent publication US11905279B1, “Benzylidene derivatives of fenobam as anti-inflammatory agents” (KING FAISAL UNIVERSITY, priority 2023, dated 2024).

Tests used:
human COX-2 = biological target: T1, human COX-2 (Homo sapiens, UniProt P35354); test: Cyclooxygenase (COX-2) enzyme inhibition assay, COX (human) Inhibitor Screening Assay Kit; format: biochemical; details: compound at 10 μM; in vitro, human COX-2 isoenzyme; ELISA incubation 18 hours; read-out: % Inhibition( COX2) Mean ± SEM
T1 construct: purchased
T1 sequence (P35354 18-604): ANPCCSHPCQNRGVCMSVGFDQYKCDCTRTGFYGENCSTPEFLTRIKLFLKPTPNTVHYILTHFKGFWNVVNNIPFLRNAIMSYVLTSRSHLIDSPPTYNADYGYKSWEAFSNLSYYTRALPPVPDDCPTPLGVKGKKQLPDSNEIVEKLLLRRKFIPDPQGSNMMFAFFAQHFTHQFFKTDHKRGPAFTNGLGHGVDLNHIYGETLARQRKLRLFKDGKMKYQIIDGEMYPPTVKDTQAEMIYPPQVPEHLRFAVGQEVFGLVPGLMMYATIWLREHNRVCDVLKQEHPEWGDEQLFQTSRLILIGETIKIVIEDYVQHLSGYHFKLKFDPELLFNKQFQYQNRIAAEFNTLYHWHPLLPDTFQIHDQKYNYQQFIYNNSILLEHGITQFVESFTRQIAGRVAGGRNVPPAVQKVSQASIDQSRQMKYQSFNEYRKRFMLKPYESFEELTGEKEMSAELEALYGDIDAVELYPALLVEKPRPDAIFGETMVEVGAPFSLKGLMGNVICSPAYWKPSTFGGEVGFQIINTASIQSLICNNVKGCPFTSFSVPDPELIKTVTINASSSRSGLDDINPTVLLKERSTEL
Experimental: (§1) According to manufacturer instructions, a COX inhibition assay was performed using COX (human) Inhibitor Screening Assay Kit for the compounds 5c, 5d, 5h, 5k, 5l, 5m, and 6d. All reagents and buffers were prepared in ultrapure water. All stock solutions of the compounds and the positive controls (Indomethacin and Celecoxib) were dissolved in DMSO. In each inhibitor sample tube, 160 μL reaction buffer, 10 μL of heme, 10 μL of diluted COX-1 or COX-2 enzyme, and 10 μL of the diluted inhibitor was added to get a final concentration of 100 μM. […] 10 μL of the vehicle control (DMSO) was added to the background tubes, and COX enzyme's 100% initial activity was obtained. All reaction tubes were incubated for 10 minutes at 37° C. Following this incubation, 10 μL of the substrate, arachidonic acid (AA), was added to all test tubes, mixed, and further incubated for precisely 30 seconds at 37° C. Then, 30 μL of SnCl2 solution was added to each reaction tube to stop the enzyme catalysis. All reaction tubes were removed from the incubator, vortexed, and incubated again for 5 min at room temperature. Reaction tubes were stored at 4° C. to quantify the prostaglandin formation by competitive enzyme-linked immunosorbent assay (ELISA). ELISA standards were prepared in test tubes to perform the competitive ELISA, and dilutions were prepared with the ELISA buffer. The standards, COX reaction dilutions, and background samples were serially diluted. After that, 50 μL of the diluted standards, COX background, COX 100% initial activity, and COX inhibitor samples were transferred to the corresponding wells of 96 well ELISA plate. Blank (to assess the background absorbance caused by Ellman's reagent) and total activity (TA) (to determine the enzymatic activity of the AChE-linked tracer) wells were left empty, 100 μL and 50 μL of the ELISA buffer were added to the nonspecific binding (NSB) and maximum binding (BO), respectively. Prostaglandin screening AChE tracer (50 μL) and prostaglandin screening ELISA antiserum (50 μL) were added to corresponding wells except for TA. The plate was covered with a plastic film, wrapped with foil to protect from light, and incubated for 18 hours at room temperature. Following incubation, the plate was washed and developed with 200 μL of Ellman's reagent to all wells, and 5 μL of tracer was added to TA well. The plate was covered with foil, placed on an orbital shaker, and incubated for 60-90 minutes. Finally, the plate reading was done at a wavelength of 405 nm with a Microplate reader from BioTek (by Agilent), and data were collected using Gen5™ (by Agilent) analysis software.
(§2) In vitro catalytic inhibition data of compounds 5c, 5d, 5h, 5k, 5l, 5m, and 6d at 10 μM against human COX-1 and COX-2 isoenzymes is listed in Table 1.

human COX-1 = biological target: T2, human COX-1 (Homo sapiens, UniProt P23219); test: Cyclooxygenase (COX-1) enzyme inhibition assay, COX (human) Inhibitor Screening Assay Kit; format: biochemical; details: compound at 10 μM; in vitro, human COX-1 isoenzyme; ELISA incubation 18 hours; read-out: % Inhibition( COX1) Mean ± SEM
T2 construct: purchased
T2 sequence (P23219 24-599): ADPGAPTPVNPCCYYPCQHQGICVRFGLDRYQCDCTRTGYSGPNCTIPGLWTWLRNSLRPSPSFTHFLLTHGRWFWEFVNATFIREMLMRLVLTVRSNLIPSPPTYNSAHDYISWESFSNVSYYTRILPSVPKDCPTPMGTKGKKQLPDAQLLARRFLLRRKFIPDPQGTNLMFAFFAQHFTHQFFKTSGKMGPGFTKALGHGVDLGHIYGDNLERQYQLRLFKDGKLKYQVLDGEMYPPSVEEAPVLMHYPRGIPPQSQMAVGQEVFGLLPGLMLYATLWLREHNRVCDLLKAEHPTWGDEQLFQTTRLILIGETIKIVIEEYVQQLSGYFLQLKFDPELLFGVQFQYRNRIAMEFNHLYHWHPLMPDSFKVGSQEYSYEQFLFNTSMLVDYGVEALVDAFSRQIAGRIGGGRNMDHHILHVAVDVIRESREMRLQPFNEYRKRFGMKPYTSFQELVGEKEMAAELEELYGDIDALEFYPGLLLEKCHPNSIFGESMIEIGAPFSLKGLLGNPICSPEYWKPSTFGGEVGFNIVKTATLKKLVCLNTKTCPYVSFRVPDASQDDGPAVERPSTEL
Experimental: as §1, §2

Structure (SMILES)	inhibition at 10 µM (human COX-2)	inhibition at 10 µM (human COX-1)
CN1/C(=C\c2ccc(-c3ccccc3[N+](=O)[O-])o2)C(=O)N/C1=N\C(=O)Nc1ccccc1F [Compound 5d, 1-(2-Fluorophenyl)-3-[(2E,5Z)-1-methyl-5-{[5-(2-nitrophenyl)furan-2-yl]methylidene}-4-oxoimidazolidin-2-ylidene]urea]	97 ± 0.5%	57 ± 0.15%
CN1/C(=C\c2ccc(-c3ccccc3[N+](=O)[O-])o2)C(=O)N/C1=N\C(=S)Nc1cccc(Cl)c1 [Compound 6d, 1-(3-Chlorophenyl)-3-[(2E,5Z)-1-methyl-5-{[5-(2-nitrophenyl)furan-2-yl]methylidene}-4-oxoimidazolidin-2-ylidene]thiourea]	54 ± 8.5%	-14 ± 5.5%
CN1/C(=C\c2ccc(Br)o2)C(=O)N/C1=N\C(=O)Nc1ccccc1F [Compound 5c, 1-{(2E,5Z)-5-[(5-Bromofuran-2-yl)methylidene]-1-methyl-4-oxoimidazolidin-2-ylidene}-3-(2-fluorophenyl)urea]	78 ± 15.5%	17 ± 6.5%
CN1/C(=C\c2ccc(Br)o2)C(=O)N/C1=N\C(=O)Nc1ccc(F)cc1 [Compound 5k, 1-{(2E,5Z)-5-[(5-Bromofuran-2-yl)methylidene]-1-methyl-4-oxoimidazolidin-2-ylidene}-3-(4-fluorophenyl)urea]	89 ± 3%	26 ± 6.5%
CN1/C(=C\c2ccc(-c3ccccc3[N+](=O)[O-])o2)C(=O)N/C1=N\C(=O)Nc1cccc(F)c1 [Compound 5h, 1-(3-Fluorophenyl)-3-[(2E,5Z)-1-methyl-5-{[5-(2-nitrophenyl)furan-2-yl]methylidene}-4-oxoimidazolidin-2-ylidene]urea]	39 ± 2%	51 ± 7%
CN1/C(=C\c2ccc(-c3ccccc3[N+](=O)[O-])o2)C(=O)N/C1=N\C(=O)Nc1ccc(F)cc1 [Compound 5l, 1-(4-Fluorophenyl)-3-[(2E,5Z)-1-methyl-5-{[5-(2-nitrophenyl)furan-2-yl]methylidene}-4-oxoimidazolidin-2-ylidene]urea]	20 ± 5.5%	31 ± 2.5%
CN1/C(=C\c2ccc([N+](=O)[O-])cc2)C(=O)N/C1=N\C(=O)Nc1ccc(Cl)cc1Cl [Compound 5m, 1-(2,4-Dichlorophenyl)-3-[(2E,5Z)-1-methyl-5-(4-nitrobenzylidene)-4-oxoimidazolidin-2-ylidene]urea]	69 ± 2.5%	5 ± 23.5%
